In data set [1] the target is Wnt-responsive promoter (TCF/LEF). The experiment in a line: Wnt-dependent luciferase reporter assay. Format: cell-based, murine. The method, boiled down: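 EC50 (uM) derived from inhibition of luminescence in Wnt3a-stimulated murine 3T3 cells expressing luciferase under a TCF/LEF promoter, with peptides added across a concentration range and vehicle as control.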
In general terms: In a reporter assay the amount or activity of a reporter protein is the signal.

Data set [2] addresses T1, β-catenin (Homo sapiens, UniProt P35222).
T1 sequence (P35222 1-781): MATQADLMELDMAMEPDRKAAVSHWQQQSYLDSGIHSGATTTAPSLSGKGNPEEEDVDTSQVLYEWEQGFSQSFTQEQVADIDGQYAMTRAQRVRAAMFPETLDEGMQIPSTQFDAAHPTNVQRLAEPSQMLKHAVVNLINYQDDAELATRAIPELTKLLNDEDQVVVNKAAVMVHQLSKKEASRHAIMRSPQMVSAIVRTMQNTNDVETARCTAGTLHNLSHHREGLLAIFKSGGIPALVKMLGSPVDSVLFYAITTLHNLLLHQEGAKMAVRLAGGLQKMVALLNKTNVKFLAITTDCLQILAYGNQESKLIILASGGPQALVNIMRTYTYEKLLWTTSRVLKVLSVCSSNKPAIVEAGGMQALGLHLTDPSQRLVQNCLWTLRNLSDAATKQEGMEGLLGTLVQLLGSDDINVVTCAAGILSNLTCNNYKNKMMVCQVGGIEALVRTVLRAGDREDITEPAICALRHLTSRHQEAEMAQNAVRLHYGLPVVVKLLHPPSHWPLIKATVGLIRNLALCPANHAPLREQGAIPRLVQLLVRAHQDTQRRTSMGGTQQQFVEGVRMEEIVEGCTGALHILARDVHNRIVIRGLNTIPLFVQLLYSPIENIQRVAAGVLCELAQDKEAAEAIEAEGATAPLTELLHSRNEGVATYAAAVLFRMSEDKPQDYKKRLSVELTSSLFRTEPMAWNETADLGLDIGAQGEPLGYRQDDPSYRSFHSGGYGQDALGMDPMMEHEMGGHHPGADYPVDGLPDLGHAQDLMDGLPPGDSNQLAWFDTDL
Description: KD50 measurement using competitive fluorescence polarization (FP) with labelled TCF4. Format: binding. The note with it: fluorescence polarization, β-catenin; for Kd: read-out: β-Cat FP KD. The method, boiled down:
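Polarization readout (470 nm excitation, 520 nm emission) tracks loss of labelled TCF4 binding to β-catenin as test compound competes. Conditions were 5 nM tracer, 100 nM β-catenin, room temperature, compound serially diluted from 10 nM to 30 uM; run in triplicate experiments.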

For data set [3] the following is noted: % Viability non-Wnt responsive cells.

Where a SMILES comes first, the peptide text is derived from it. The star is where a group is joined. Bn = c1ccc(C*)cc1

For orientation: EC50 means the concentration needed to bring the measured effect to its halfway point. For orientation: Kd means a measure of binding affinity in units of concentration. In general, viability refers to a read-out of living cells in per cent, often relative to untreated cells. As for `CC[C@H](C)[C@H](NC(=O)[C@H](CC(C)C)NC(=O)[C@H](Cc1ccccc1)NC(=O)[C@H](Cc1c[nH]c2ccccc12)NC(=O)[C@@H](N)CC(=O)O)C(=O)N[C@@H](CS)C(=O)N[C@@H](Cc1ccccc1)C(=O)N[C@@H](Cc1c[nH]c2ccccc12)C(=O)NCC(=O)O` [compound 142] (H-DWFLICFWG-OH), the half-maximal effective concentration (EC50) in data set [1] is less than 7.5 µM. Moreover, in data set [2], the “β-Cat FP Hill slope” value came out at 1.15 and the equilibrium dissociation constant (Kd) was less than 0.4 µM. Moreover, the viability in data set [3] worked out at 108%.
`CC[C@H](C)[C@H](NC(=O)[C@H](CC(C)C)NC(=O)[C@H](Cc1ccccc1)NC(=O)[C@H](Cc1c[nH]c2ccccc12)NC(=O)[C@@H](N)CCSC)C(=O)N[C@@H](CCC(N)=O)C(=O)N[C@@H](Cc1ccccc1)C(=O)N[C@@H](Cc1c[nH]c2ccccc12)C(=O)NCC(=O)O` [compound 143] (H-MWFLIQFWG-OH): the concentration for a half-maximal effect (EC50) in data set [1] was in the range of 7.5 to 15 µM. Moreover, the dissociation constant (Kd) in data set [2] was more than 30 µM. Moreover, in data set [3], the viability came out at 104%.
For `CC[C@H](C)[C@H](NC(=O)[C@H](CC(C)C)NC(=O)[C@@H](NC(=O)[C@H](Cc1c[nH]c2ccccc12)NC(=O)[C@@H](N)CCSC)[C@@H](C)CC)C(=O)N[C@@H](CCO)C(=O)N[C@@H](Cc1ccccc1)C(=O)N[C@@H](Cc1c[nH]c2ccccc12)C(=O)NCC(=O)O` [compound 144] (HELM PEPTIDE1{M.W.I.L.I.[O=C([C@H](CCO)N[*:1])[*:2]].F.W.G}$$$$V2.0), in that order: less than 7.5 µM, more than 30 µM and 106%.
In data set [1], `CC[C@H](C)[C@H](NC(=O)[C@H](CC(C)C)NC(=O)[C@H](Cc1ccccc1)NC(=O)[C@H](Cc1c[nH]c2ccccc12)NC(=O)[C@@H](N)CCSC)C(=O)N[C@@H](CS)C(=O)N[C@@H](Cc1c[nH]cn1)C(=O)N[C@@H](Cc1c[nH]c2ccccc12)C(=O)NCC(=O)O` [compound 145] (H-MWFLICHWG-OH) returned an EC50 of 7.5 to 15 µM. In addition, in data set [2], the “β-Cat FP Hill slope” value is 0.7 and the dissociation constant (Kd) was in the range of 1 to 10 µM. In addition, in data set [3], the viability was found to be 107%.
In the case of `CC[C@H](C)[C@H](NC(=O)[C@H](CC(C)C)NC(=O)[C@@H](NC(=O)[C@H](Cc1c[nH]c2ccccc12)NC(=O)[C@@H](N)CCSC)[C@@H](C)CC)C(=O)N[C@@H](COCc1ccccc1)C(=O)N[C@@H](Cc1ccccc1)C(=O)N[C@@H](Cc1c[nH]c2ccccc12)C(=O)NCC(=O)O` [compound 146] (H-MWILIS(Bn)FWG-OH), in data set [1], the EC50 was more than 30 µM. The Kd in data set [2] was more than 30 µM. In data set [3], the viability stood at 99.1%.
`CC[C@H](C)[C@@H]1NC(=O)[C@H](CC(C)C)NC(=O)[C@H](Cc2ccccc2)NC(=O)[C@H](Cc2c[nH]c3ccccc23)NC(=O)[C@H](CCSC)NC(=O)CCCNC(=O)C[C@@H](C(=O)O)NC(=O)[C@H](Cc2c[nH]c3ccccc23)NC(=O)[C@H](Cc2ccccc2)NC(=O)[C@H](CS)NC1=O` [compound 147] (HELM PEPTIDE1{[O=C(CCCN[*:1])[*:2]].M.W.F.L.I.C.F.W.D}$PEPTIDE1,PEPTIDE1,1:R1-10:R3$$$V2.0) had an EC50 in data set [1] of more than 30 µM. Moreover, the Kd in data set [2] was more than 30 µM. Besides, the viability in data set [3] was 105%.
In the case of `CC[C@H](C)[C@H](NC(=O)[C@H](CC(C)C)NC(=O)[C@H](Cc1ccccc1)NC(=O)[C@H](Cc1c[nH]c2ccccc12)NC(=O)[C@@H](N)CCSC)C(=O)N[C@@H](CCC(N)=O)C(=O)N[C@@H](Cc1ccccc1)C(=O)N[C@@H](Cc1ccc(O)cc1)C(=O)NCC(=O)O` [compound 149] (H-MWFLIQFYG-OH), the concentration for a half-maximal effect (EC50) in data set [1] lay in the range of 7.5 to 15 µM. Moreover, in data set [2], the “β-Cat FP Hill slope” value was 0.75 and the Kd lay in the range of 0.4 to 1 µM. In addition, the viability in data set [3] amounted to 104%.
For the compound `CC[C@H](C)[C@H](NC(=O)[C@H](Cc1c[nH]c2ccccc12)NC(=O)[C@@H](N)CCSC)C(=O)N[C@@H](CC(C)C)C(=O)N[C@H](C(=O)N[C@H](C(=O)N[C@@H](Cc1ccccc1)C(=O)N[C@@H](Cc1c[nH]c2ccccc12)C(=O)NCC(=O)O)[C@@H](C)O)[C@@H](C)CC` [compound 150] (H-MWILITFWG-OH), the EC50 in data set [1] is less than 7.5 µM. Also, in data set [2], the equilibrium dissociation constant (Kd) is more than 30 µM. Moreover, in data set [3], the viability stood at 99.8%.
In the case of `CC[C@H](C)[C@H](NC(=O)[C@H](CC(C)C)NC(=O)[C@H](Cc1ccccc1)NC(=O)[C@H](Cc1c[nH]c2ccccc12)NC(=O)[C@@H](N)CCSC)C(=O)N[C@@H](CCCCN)C(=O)N[C@@H](Cc1ccccc1)C(=O)N[C@@H](Cc1ccc(O)cc1)C(=O)NCC(=O)O` [compound 151] (H-MWFLIKFYG-OH), the EC50 in data set [1] was 15 to 22.5 µM. Besides, in data set [2], the “β-Cat FP Hill slope” value was found to be 0.7 and the Kd lay in the range of 0.4 to 1 µM. Further, the viability in data set [3] is 107%.
For `CC[C@H](C)[C@H](NC(=O)[C@H](CC(C)C)NC(=O)[C@@H](NC(=O)[C@H](Cc1c[nH]c2ccccc12)NC(=O)[C@@H](N)CCSC)[C@@H](C)CC)C(=O)N[C@@H](CO)C(=O)N[C@@H](Cc1ccc(O)cc1)C(=O)N[C@@H](Cc1c[nH]c2ccccc12)C(=O)NCC(=O)O` [compound 152] (H-MWILISYWG-OH), the EC50 in data set [1] is less than 7.5 µM. Besides, the Kd in data set [2] was more than 30 µM. Also, in data set [3], the viability amounted to 114%.
For `CC[C@H](C)[C@H](NC(=O)[C@H](CC(C)C)NC(=O)[C@H](Cc1ccccc1)NC(=O)[C@H](Cc1c[nH]c2ccccc12)NC(=O)[C@@H](N)CCSC)C(=O)N[C@@H](CS)C(=O)N[C@@H](Cc1ccccc1)C(=O)N[C@@H](Cc1c[nH]c2ccccc12)C(=O)NCCCC(=O)O` [compound 153] (HELM PEPTIDE1{M.W.F.L.I.C.F.W.[O=C(O)CCCN[*:1]]}$$$$V2.0), in that order: less than 7.5 µM, more than 30 µM and 104%.
For `CC[C@H](C)[C@H](NC(=O)[C@H](CC(C)C)NC(=O)[C@H](Cc1ccccc1)NC(=O)[C@H](Cc1c[nH]c2ccccc12)NC(=O)[C@@H](N)CCSC)C(=O)N[C@@H](CS)C(=O)N[C@@H](Cc1ccccc1)C(=O)N[C@@H](Cc1c[nH]c2ccccc12)C(=O)NCC(=O)O` [compound 154] (H-MWFLICFWG-OH), in that order: 15 to 22.5 µM, more than 30 µM and 103%.
For `CC[C@H](C)[C@H](NC(=O)[C@H](CC(C)C)NC(=O)[C@@H](NC(=O)[C@H](Cc1c[nH]c2ccccc12)NC(=O)[C@@H](N)CCSC)[C@@H](C)CC)C(=O)N[C@@H](CO)C(=O)N[C@@H](Cc1ccccc1)C(=O)N[C@@H](Cc1c[nH]c2ccccc12)C(=O)NCC(=O)O` [compound 155] (H-MWILISFWG-OH), in that order: more than 30 µM, more than 30 µM and 97%.
`CC[C@H](C)[C@H](NC(=O)[C@H](CC(C)C)NC(=O)[C@H](C)NC(=O)[C@H](Cc1c[nH]c2ccccc12)NC(=O)[C@@H](N)CCSC)C(=O)N[C@@H](CO)C(=O)N[C@@H](Cc1ccccc1)C(=O)N[C@@H](Cc1c[nH]c2ccccc12)C(=O)NCC(=O)O` [compound 156] (H-MWALISFWG-OH): the EC50 in data set [1] is less than 7.5 µM. Moreover, in data set [2], the equilibrium dissociation constant (Kd) is more than 30 µM. Besides, the viability in data set [3] came to 102%.
For `CC[C@H](C)[C@H](NC(=O)[C@H](C)NC(=O)[C@H](Cc1ccccc1)NC(=O)[C@H](Cc1c[nH]c2ccccc12)NC(=O)[C@@H](N)CCSC)C(=O)N[C@@H](CO)C(=O)N[C@@H](Cc1ccccc1)C(=O)N[C@@H](Cc1c[nH]c2ccccc12)C(=O)NCC(=O)O` [compound 157] (H-MWFAISFWG-OH), in that order: less than 7.5 µM, more than 30 µM and 99.9%.
For `CSCC[C@H](N)C(=O)N[C@@H](Cc1c[nH]c2ccccc12)C(=O)N[C@@H](Cc1ccccc1)C(=O)N[C@@H](CC(C)C)C(=O)N[C@@H](C)C(=O)N[C@@H](CO)C(=O)N[C@@H](Cc1ccccc1)C(=O)N[C@@H](Cc1c[nH]c2ccccc12)C(=O)NCC(=O)O` [compound 158] (H-MWFLASFWG-OH), in that order: 7.5 to 15 µM, more than 30 µM and 95.6%.
For `CC[C@H](C)[C@H](NC(=O)[C@H](CC(C)C)NC(=O)[C@H](Cc1ccccc1)NC(=O)[C@H](Cc1c[nH]c2ccccc12)NC(=O)[C@@H](N)CCSC)C(=O)N[C@@H](C)C(=O)N[C@@H](Cc1ccccc1)C(=O)N[C@@H](Cc1c[nH]c2ccccc12)C(=O)NCC(=O)O` [compound 159] (H-MWFLIAFWG-OH), in that order: less than 7.5 µM, more than 30 µM and 107%.
Turning to `CC[C@H](C)[C@H](NC(=O)[C@H](CC(C)C)NC(=O)[C@H](Cc1ccccc1)NC(=O)[C@H](Cc1c[nH]c2ccccc12)NC(=O)[C@@H](N)CCSC)C(=O)N[C@@H](CO)C(=O)N[C@@H](C)C(=O)N[C@@H](Cc1c[nH]c2ccccc12)C(=O)NCC(=O)O` [compound 160] (H-MWFLISAWG-OH), the 50% effective concentration (EC50) in data set [1] was less than 7.5 µM. Besides, in data set [2], the Kd is more than 30 µM. Besides, in data set [3], the viability worked out at 102%.
